≈ marks a conversion by molar mass, not a printed value.
Experiments:
Assay type in all cases: functional
[1] = test system: Mycobacterium tuberculosis; assay: Effective concentration required to reduce CFU of Mycobacterium tuberculosis Erdman (ATCC 35801) strain was determined in monolayers of mouse bone marrow macrophages; […]
[2] = test system: Mycobacterium tuberculosis; assay: Effective concentration required to reduce CFU of Mycobacterium tuberculosis Erdman (ATCC 35801) strain was determined in monolayers of mouse bone marrow macrophages; Range is 0.5-1.5
[3] = test system: Mycobacterium tuberculosis; assay: Minimum bactericidal concentration required against Mycobacterium tuberculosis H37Rv strain was determined in monolayers of mouse bone marrow macrophages
[4] = test system: Mycobacterium tuberculosis; assay: Effective concentration required to reduce CFU of Mycobacterium tuberculosis Erdman (ATCC 35801) strain was determined in monolayers of mouse bone marrow macrophages
[5] = test system: Mycobacterium tuberculosis; assay: Effective concentration required compared to that of Minimum inhibition concentration required against Mycobacterium tuberculosis H37Rv strain was determined; Range is 0.6-1.2

| Structure (SMILES) | EC90 [1] [µg/mL] | EC99 [2] [µg/mL] | MBC [3] [µg/mL] | EC90 [4] [µg/mL] | EC99 [4] [µg/mL] | EC90/MIC [5] |
| --- | --- | --- | --- | --- | --- | --- |
| CO[C@H]1/C=C/O[C@@]2(C)Oc3c(C)c(O)c4c(O)c(c(/C=N/N5CCN(C)CC5)c(O)c4c3C2=O)NC(=O)/C(C)=C\C=C\[C@H](C)[C@H](O)[C@@H](C)[C@@H](O)[C@@H](C)[C@H](OC(C)=O)[C@@H]1C [RIFAMPIN] | 0.1 (≈ 0.122 µM) | 1.5 |  |  |  |  |
| NNC(=O)c1ccncc1 [ISONIAZID] |  |  | 0.1 (≈ 0.729 µM) | 0.03 (≈ 0.219 µM) | 0.42 | 1.2 |

Source: ChEMBL document CHEMBL1138642, “In vitro advanced antimycobacterial screening of cobalt(II) and copper(II) complexes of fluorinated isonicotinoylhydrazones” (2004)
